From US8975417B2, “Pyrazolopyrrolidine derivatives and their use in the treatment of disease” (Novartis AG, priority 2013, dated 2015)

Assays:
[1] = target: His-Brd4(44-477) (Homo sapiens (Human), UniProt O60885); assay: TR-FRET in-vitro binding assay for BRD4; details: biochemical
How it was run: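 Assay buffer HEPES pH 7.5/NaCl/Tween20/BSA; protein solution 45 nM, peptide solution 60 nM acetyl-H4 (AcK5,8,12,16). Incubated 30 °C for 35 min; Eu-anti-His6 and SA-APC detection, TR-FRET read.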

[2] = target: nuclear BRD4-NUT foci in HCC2494 NUT midline carcinoma cells (Homo sapiens (Human), UniProt O60885+Q86Y26); assay: Nut-foci formation assay; format: cell-based; details: 24 hours, read-out: HCS Brd4-NUT IC50
Experimental: HCC2494 NUT midline carcinoma cells (expressing BRD4-NUT-fusion) were obtained from the University of Texas Southwestern and cultured in RPMI-1640 medium containing 10% Foetal Calf Serum at 37° C. in a humidified 5% CO2 incubator.
Compound-mediated inhibition of BRD4 activity was monitored by quantification of the number and intensity of nuclear BRD4-NUT foci using automated immunofluorescence microscopy. Briefly, 5000 cells in 20 μL fresh medium were seeded into Poly-D-Lysine-precoated 384-well plates and incubated overnight at 37° C. and 5% CO2, followed by addition of 5 μl medium containing compound dilutions at 5-fold their final intended concentration. Dose-response effects were assessed by 3-fold serial dilutions of the test compound, starting at 10 μM. Following incubation of the cells for 24 hours at 37° C. and 5% CO2, the cells were fixed by incubation with 3.7% formaldehyde for 10 min, followed by immunofluorescence staining using rabbit anti-NUT (Cell Signaling Technologies, Cat#3625) as primary, and AlexaFluor488-labeled goat anti-rabbit (Invitrogen, Cat#A11008) as secondary antibody (latter complemented with 1 μg/mL Hoechst33342 as DNA dye). Assay plates were imaged using the appropriate filter sets on the Cellomics VTi automated fluorescence microscopy platform (ThermoFisher Scientific) and the population average of the number of NUT-foci per nucleus is quantified using the Cellomics Spot Detection BioApplication image analysis algorithm (ThermoFisher Scientific). The effect of a particular test compound concentration on NUT-foci number and intensity is expressed as percentage of the value obtained for cells treated with vehicle only (DMSO, 0.1% final concentration), which was set as 100. Compound concentrations leading to half-maximal (IC50) inhibition of the aforementioned readout parameters were determined using standard four parameter curve fitting.

[3] = target: His-CREBBP (1081-1197) bromodomain (Homo sapiens (Human), UniProt Q92793); assay: AlphaScreen in-vitro binding assay for CREBBP; details: biochemical
How it was run: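 Ni-chelate acceptor and streptavidin donor beads (45 µg/mL each, in 50 mM HEPES pH 7.5, 150 mM NaCl, 0.02% BSA) were then added for 60 min at room temperature. IC50 came from 8-point non-linear regression.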

His-CREBBP (1081-1197) bromodomain, sequence (Q92793 1081-1197): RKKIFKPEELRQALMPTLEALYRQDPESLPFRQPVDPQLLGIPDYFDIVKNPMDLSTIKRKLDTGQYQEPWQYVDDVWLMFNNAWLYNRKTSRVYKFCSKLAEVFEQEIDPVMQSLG

## CCc1c2c(nn1C(=O)N(C)C)C(=O)N(c1cc(C)c(=O)n(C)c1)C2c1ccc(Cl)cc1 (stereo not drawn) [Example 148, 4-(4-chlorophenyl)-5-(1,5-dimethyl-6-oxo-1,6-dihydropyridin-3-yl)-3-ethyl-N,N-dimethyl-6-oxo-5,6-dihydropyrrolo[3,4-c]pyrazole-2(4H)-carboxamide]
[1]
  IC50: 270 nM
[2]
  IC50: 118 nM
[3]
  IC50: 4100 nM

## CCc1nn(C2CC2)c2c1[C@@H](c1ccc(Cl)cc1)N(c1cc(C)c3nnc(C)n3c1)C2=O [Example 107, (R)-4-(4-chlorophenyl)-1-cyclopropyl-5-(3,8-dimethyl-[1,2,4]triazolo[4,3-a]pyridin-6-yl)-3-ethyl-4,5-dihydropyrrolo[3,4-c]pyrazol-6(1H)-one]
[1]
  IC50: < 11 nM
[2]
  IC50: 2.9 nM
[3]
  IC50: 6900 nM

## CCc1nn(C2CC2)c2c1[C@H](c1ccc(Cl)cc1)N(c1cc(C)c3nnc(C)n3c1)C2=O [Example 106, (S)-4-(4-chlorophenyl)-1-cyclopropyl-5-(3,8-dimethyl-[1,2,4]triazolo[4,3-a]pyridin-6-yl)-3-ethyl-4,5-dihydropyrrolo[3,4-c]pyrazol-6(1H)-one]
[1]
  IC50: 2200 nM
[2]
  IC50: 2240 nM
[3]
  IC50: > 37000 nM

## CC(=O)N1CC(n2nc(C)c3c2C(=O)N(c2cc(C)c(=O)n(C)c2)C3c2ccc(Cl)cc2)C1 (stereo not drawn) [Example 153, 1-(1-acetylazetidin-3-yl)-4-(4-chlorophenyl)-5-(1,5-dimethyl-6-oxo-1,6-dihydropyridin-3-yl)-3-methyl-4,5-dihydropyrrolo[3,4-c]pyrazol-6(1H)-one]
[1]
  IC50: 140 nM
[2]
  IC50: 150 nM
[3]
  IC50: 12000 nM

## Cc1cc(N2C(=O)c3nn(C4COC4)c(C)c3C2c2ccc(Cl)cc2)cn2c(C)nnc12 (stereo not drawn) [Example 136, 4-(4-chlorophenyl)-5-(3,8-dimethyl-[1,2,4]triazolo[4,3-a]pyridin-6-yl)-3-methyl-2-(oxetan-3-yl)-4,5-dihydropyrrolo[3,4-c]pyrazol-6(2H)-one]
[1]
  IC50: 110 nM
[2]
  IC50: 92.8 nM
[3]
  IC50: 4300 nM

## COc1ncccc1-n1nc(C)c2c1C(=O)N(c1cc(C)c(=O)n(C)c1)[C@@H]2c1ccc(Cl)cc1 [Example 128, (R)-4-(4-chlorophenyl)-5-(1,5-dimethyl-6-oxo-1,6-dihydropyridin-3-yl)-1-(2-methoxypyridin-3-yl)-3-methyl-4,5-dihydropyrrolo[3,4-c]pyrazol-6(1H)-one]
[1]
  IC50: 36 nM
[2]
  IC50: 53.3 nM
[3]
  IC50: 3700 nM

## Cc1nn(C2COC2)c2c1C(c1ccc(Cl)cc1)N(c1cc(C)c(=O)n(C)c1)C2=O (stereo not drawn) [Example 135, 4-(4-chlorophenyl)-5-(1,5-dimethyl-6-oxo-1,6-dihydropyridin-3-yl)-3-methyl-1-(oxetan-3-yl)-4,5-dihydropyrrolo[3,4-c]pyrazol-6(1H)-one]
[1]
  IC50: 140 nM
[2]
  IC50: 93.4 nM
[3]
  IC50: > 37000 nM

## Cc1cc(N2C(=O)c3nn(C4CC4)c(C)c3C2c2ccc(Cl)cc2)cn2c(C)nnc12 (stereo not drawn) [Example 93, 4-(4-chlorophenyl)-2-cyclopropyl-5-(3,8-dimethyl-[1,2,4]triazolo[4,3-a]pyridin-6-yl)-3-methyl-4,5-dihydropyrrolo[3,4-c]pyrazol-6(2H)-one]
[1]
  IC50: 27 nM
[2]
  IC50: 17.9 nM
[3]
  IC50: 3100 nM

## Cc1nn(-c2ccnn2C)c2c1[C@@H](c1ccc(Cl)cc1)N(c1cc(C)c3nnc(C)n3c1)C2=O [Example 125, (R)-4-(4-chlorophenyl)-5-(3,8-dimethyl-[1,2,4]triazolo[4,3-a]pyridin-6-yl)-3-methyl-1-(1-methyl-1H-pyrazol-5-yl)-4,5-dihydropyrrolo[3,4-c]pyrazol-6(1H)-one]
[1]
  IC50: 25 nM
[2]
  IC50: 32.3 nM
[3]
  IC50: 21000 nM

## Cc1nn(C2CC2)c2c1[C@@H](c1ccc(Cl)cc1)N(c1cc(Cl)c(=O)n(C)c1)C2=O [Example 51, (R)-5-(5-chloro-1-methyl-6-oxo-1,6-dihydropyridin-3-yl)-4-(4-chlorophenyl)-1-cyclopropyl-3-methyl-4,5-dihydropyrrolo[3,4-c]pyrazol-6(1H)-one]
[1]
  IC50: 20 nM
[2]
  IC50: 76.4 nM
[3]
  IC50: 1400 nM
